Reference: paper PMC12630292 (Journal of Neural Transmission, 2025)
Read-outs that look alike come from different tables or passages of the source.

Tests used:
D2S receptor = D2S receptor (Homo sapiens, UniProt P14416); assay: cell-based; settings: read-out: Emax relative to dopamine, β-arrestin assay D2S
D4 receptor = D4 receptor (Homo sapiens, UniProt P21917); assay: cell-based; settings: read-out: Emax relative to dopamine, β-arrestin assay D4
D1 receptor [1] = target: T1, D1 receptor (Homo sapiens, UniProt P21728); assay: cell-based; settings: read-out: Emax relative to dopamine, β-arrestin assay D1
5HT2A = settings: ref Millan et al. [2002]; Newman-Tancredi et al. [2002]; cited from earlier work
D2L receptor = D2L receptor (Homo sapiens, UniProt P14416); assay: cell-based; settings: read-out: Emax relative to dopamine, β-arrestin assay D2L
D3 receptor = D3 receptor (Homo sapiens, UniProt P35462); assay: cell-based; settings: read-out: Emax relative to dopamine, β-arrestin assay D3
D1 receptor [2] = target: T1, D1 receptor; assay: cell-based; settings: read-out: Emax relative to dopamine, internalization assay D1

CN1CCc2cccc3c2[C@H]1Cc1ccc(O)c(O)c1-3 [Apomorphine]
Emax (D2S receptor): 90%
Emax (D4 receptor): 52%
Emax (D1 receptor [1]): 28%
5HT2A antagonist actions (5HT2A): weak
Emax (D2L receptor): 83%
Emax (D3 receptor): 89%
Emax (D1 receptor [2]): 38%
